Patent publication US12637471B2, “Heterocyclic compounds, compositions, methods of preparation and uses thereof” (Organon R&D Finland Ltd, priority 2021, dated 2026)

How the values were obtained:
Assay type in all cases: biochemical
[1] = target: T1, 17β-Hydroxysteroid Dehydrogenase Type 2 Enzyme (17β-HSD2) (Homo sapiens, UniProt P37059); experiment: Inhibition of the 17β-hydroxysteroid dehydrogenase type 2 enzyme, 3H-testosterone conversion; conditions: inhibitor at 10 μM
T1 construct: made in house; host or cells: Sf-9 insect cells (baculovirus)
T1 sequence (P37059 1-387): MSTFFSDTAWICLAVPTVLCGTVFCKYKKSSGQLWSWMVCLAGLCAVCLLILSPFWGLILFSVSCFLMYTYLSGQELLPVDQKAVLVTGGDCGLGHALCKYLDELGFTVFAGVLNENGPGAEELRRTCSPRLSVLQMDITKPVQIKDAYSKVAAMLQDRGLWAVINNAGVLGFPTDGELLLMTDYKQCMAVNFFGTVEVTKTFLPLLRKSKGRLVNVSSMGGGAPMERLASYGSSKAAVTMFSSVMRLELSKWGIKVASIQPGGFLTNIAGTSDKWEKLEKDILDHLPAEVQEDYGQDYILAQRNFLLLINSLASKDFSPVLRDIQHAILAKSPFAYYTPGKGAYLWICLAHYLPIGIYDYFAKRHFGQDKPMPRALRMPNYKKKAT
In short: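 Single-point screen at 10 μM inhibitor, 1% DMSO: Sf-9-expressed human enzyme (105 nM), NAD 1 mM, ³H-labelled testosterone 56.25 nM, pH 8.5 phosphate/EDTA buffer, 30 min, room temperature. After TCA quench, substrate and product radioactivity quantified by UPLC with scintillation detection; inhibition percent from conversion.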

[2] = target: T2, Recombinant human AKR1C3 (17β-HSD5) protein (Homo sapiens, UniProt P42330); experiment: Inhibition of AKR1C3 (17β-hydroxysteroid dehydrogenase type 5) enzyme, fluorescence assay; conditions: inhibitor at 500 nM
T2 construct: made in house; host or cells: E. coli
T2 sequence (P42330 1-323): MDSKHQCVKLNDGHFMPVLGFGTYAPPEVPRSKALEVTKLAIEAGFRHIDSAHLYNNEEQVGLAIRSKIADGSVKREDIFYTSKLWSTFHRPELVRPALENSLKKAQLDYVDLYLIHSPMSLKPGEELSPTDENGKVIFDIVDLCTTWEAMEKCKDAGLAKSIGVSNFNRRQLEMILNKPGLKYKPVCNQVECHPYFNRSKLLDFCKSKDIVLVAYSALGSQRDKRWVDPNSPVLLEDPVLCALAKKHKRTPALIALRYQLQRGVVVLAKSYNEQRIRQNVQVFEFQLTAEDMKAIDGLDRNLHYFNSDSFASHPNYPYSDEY
In short: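 Percent inhibition at 500 nM compound, derived from substrate conversion; product alcohol measured by fluorescence (ex 420, em 510 nm) against a 1 μM–10 nM standard curve. Reaction: 27 nM recombinant AKR1C3, 1 μM ketone substrate, 1 mM NADPH, phosphate/EDTA buffer pH 7.4, 1% DMSO, RT for 60–120 min.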

[3] = target: T3, Recombinant human aldo-keto reductase family 1 member C2 (AKR1C2) protein (Homo sapiens, UniProt P52895); experiment: Inhibition of the aldo-keto reductase family 1 member C2, 3H-dihydrotestosterone conversion; conditions: inhibitor at 10 μM
T3 construct: made in house; host or cells: Sf-9 insect cells (baculovirus)
T3 sequence (P52895 1-323): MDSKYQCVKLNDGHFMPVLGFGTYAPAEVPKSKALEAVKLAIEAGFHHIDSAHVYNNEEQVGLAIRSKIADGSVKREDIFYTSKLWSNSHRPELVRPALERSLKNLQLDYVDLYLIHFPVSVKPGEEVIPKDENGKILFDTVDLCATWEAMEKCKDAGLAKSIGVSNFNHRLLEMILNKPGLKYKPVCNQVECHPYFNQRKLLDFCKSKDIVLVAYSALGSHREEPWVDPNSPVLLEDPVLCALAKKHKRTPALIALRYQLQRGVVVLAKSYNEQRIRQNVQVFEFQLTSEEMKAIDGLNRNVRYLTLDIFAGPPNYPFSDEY
In short: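 Single-point screen at 10 μM inhibitor, 1% DMSO: [3H]DHT (6.25 nM) reduction to 3α-diol by baculovirus-made AKR1C2 (13.6 nM), pH 7.4 phosphate buffer, 1 mM NADPH, 37 °C for 45 min. Radio-UPLC quantified product versus substrate to give percent inhibition.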

Row | SMILES | inhibition at 10 µM [1] [%] | inhibition at 0.5 µM [2] [%] | inhibition at 10 µM [3] [%]
1 | N#CC(=C1CCN(C(=O)N2CCC(O)CC2)CC1)c1n[nH]c2ccc(F)cc12 [Compound 94, 2-(5-fluoro-1H-indazol-3-yl)-2-(1-(4-hydroxypiperidine-1-carbonyl)piperidin-4-ylidene)acetonitrile] | 8 | 97 | 7
2 | N#CC(=C1CCN(C(=O)N2CCC(CCCO)CC2)CC1)c1cccc(Cl)c1 [Compound 95, 2-(3-chlorophenyl)-2-(1-(4-(3-hydroxypropyl)piperidine-1-carbonyl)piperidin-4-ylidene)acetonitrile] | 25 | 94 | 22
3 | CC(=O)N1CCN(C(=O)N2CCC(=C(C#N)c3cccc(Cl)c3)CC2)CC1 [Compound 96, 2-(1-(4-acetylpiperazine-1-carbonyl)piperidin-4-ylidene)-2-(3-chlorophenyl)acetonitrile] | 11 | 95 | 13
4 | N#CC(=C1CCN(C(=O)N2CCC(CCO)CC2)CC1)c1ccc(F)cc1 [Compound 97, 2-(4-fluorophenyl)-2-(1-(4-(2-hydroxyethyl)piperidine-1-carbonyl)piperidin-4-ylidene)acetonitrile] | 9 | 96 | 9
5 | N#CC(=C1CCN(C(=O)N2CCC(C(F)(F)F)CC2)CC1)c1ccc(F)cc1 [Compound 98, 2-(4-fluorophenyl)-2-(1-(4-(trifluoromethyl)piperidine-1-carbonyl)piperidin-4-ylidene)acetonitrile] | 18 | 97 | 8
6 | N#CC(=C1CCN(C(=O)N2CCC(S(N)(=O)=O)CC2)CC1)c1cccc(Cl)c1 [Compound 99, 1-(4-((3-chlorophenyl)(cyano)methylene)piperidine-1-carbonyl)piperidine-4-sulfonamide] | 18 | 96 | 16
7 | N#CC(=C1CCN(C(=O)N2CCSCC2)CC1)c1ccc(F)cc1 [Compound 100, 2-(4-fluorophenyl)-2-(1-(thiomorpholine-4-carbonyl)piperidin-4-ylidene)acetonitrile] | -2 | 92 | 6
8 | N#CC(=C1CCN(C(=O)N2CC3CCCC3C2)CC1)c1ccc(F)cc1 (stereo not drawn) [Compound 101, 2-(4-fluorophenyl)-2-(1-(octahydrocyclopenta[c]pyrrole-2-carbonyl)piperidin-4-ylidene)acetonitrile] | 14 | 90 | 11
9 | N#CC(=C1CCN(C(=O)N2CCc3ccccc32)CC1)c1ccc(F)cc1 [Compound 102, 2-(4-fluorophenyl)-2-(1-(indoline-1-carbonyl)piperidin-4-ylidene)acetonitrile] | 12 | 99 | 17
10 | CN(C(=O)N1CCC(=C(C#N)c2ccc(Cl)s2)CC1)C1COC1 [Compound 103, 4-((5-chlorothiophen-2-yl)(cyano)methylene)-N-methyl-N-(oxetan-3-yl)piperidine-1-carboxamide] | -4 | 95 | 19
11 | N#CC(=C1CCN(C(=O)N2CCCCC2)CC1)c1ccc(Cl)cc1 [Compound 104, 2-(4-chlorophenyl)-2-(1-(piperidine-1-carbonyl)piperidin-4-ylidene)acetonitrile] | 0 | 96 | 5
12 | CCN(CC)C(=O)N1CCC(=C(C#N)c2ccc(Cl)cc2)CC1 [Compound 105, 4-((4-chlorophenyl)(cyano)methylene)-N,N-diethylpiperidine-1-carboxamide] | 15 | 100 | 10
13 | COCC1CCN(C(=O)N2CCC(=C(C#N)c3ccc(F)cc3)CC2)CC1 [Compound 106, 2-(4-fluorophenyl)-2-(1-(4-(methoxymethyl)piperidine-1-carbonyl)piperidin-4-ylidene)acetonitrile] | 2 | 93 | 5
14 | N#CC(=C1CCN(C(=O)N2CCCC(O)CC2)CC1)c1ccc(F)cc1 (stereo not drawn) [Compound 107, 2-(4-fluorophenyl)-2-(1-(4-hydroxyazepane-1-carbonyl)piperidin-4-ylidene)acetonitrile] | -1 | 92 | 14
15 | N#CC(=C1CCN(C(=O)N2CCc3sccc3C2)CC1)c1ccc(F)cc1 [Compound 108, 2-(4-fluorophenyl)-2-(1-(4,5,6,7-tetrahydrothieno[3,2-c]pyridine-5-carbonyl)piperidin-4-ylidene)acetonitrile] | -11 | 98 | 21
16 | N#CC(=C1CCN(C(=O)N2CCc3cc(F)ccc32)CC1)c1ccc(F)cc1 [Compound 109, 2-(1-(5-fluoroindoline-1-carbonyl)piperidin-4-ylidene)-2-(4-fluorophenyl)acetonitrile] | 26 | 96 | 12
17 | C[C@@H]1CCCCN1C(=O)N1CCC(=C(C#N)c2ccc(F)cc2)CC1 [Compound 110, (R)-2-(4-fluorophenyl)-2-(1-(2-methylpiperidine-1-carbonyl)piperidin-4-ylidene)acetonitrile] | 30 | 96 | 6
18 | N#CC(=C1CCN(C(=O)N2C[C@@H]3CC[C@@H]2C3)CC1)c1ccc(F)cc1F [Compound 111, 2-(1-((1R,4R)-2-azabicyclo[2.2.1]heptane-2-carbonyl)piperidin-4-ylidene)-2-(2,4-difluorophenyl)acetonitrile] | 8 | 95 | 13
19 | N#CC(=C1CCN(C(=O)N2CCc3sccc3C2)CC1)c1ccc(F)cc1F [Compound 112, 2-(2,4-difluorophenyl)-2-(1-(4,5,6,7-tetrahydrothieno[3,2-c]pyridine-5-carbonyl)piperidin-4-ylidene)acetonitrile] | 17 | 96 | 30
20 | N#CC(=C1CCN(C(=O)N2CCc3[nH]ncc3C2)CC1)c1ccc(Cl)cc1 [Compound 113, 2-(4-chlorophenyl)-2-(1-(4,5,6,7-tetrahydro-1H-pyrazolo[4,3-c]pyridine-5-carbonyl)piperidin-4-ylidene)acetonitrile] | 16 | 104 | 19
21 | N#CC(=C1CCN(C(=O)N2CCc3sccc3C2)CC1)c1cccc2[nH]ncc12 [Compound 114, 2-(1H-indazol-4-yl)-2-(1-(4,5,6,7-tetrahydrothieno[3,2-c]pyridine-5-carbonyl)piperidin-4-ylidene)acetonitrile] | 34 | 97 | 11
22 | N#CC(=C1CCN(C(=O)N2CCC(O)CC2)CC1)c1ccc(OC(F)(F)F)cc1 [Compound 115, 2-(1-(4-hydroxypiperidine-1-carbonyl)piperidin-4-ylidene)-2-(4-(trifluoromethoxy)phenyl)acetonitrile] | -1 | 96 | 0
